Assay results as given in patent US10294202B2, “Pyrrolidinones as herbicides” (FMC Corporation, priority 2013, dated 2019).

Columns and labels:
barnyardgrass [1] = assay: Test C flooded paddy test; format: in vivo, Echinochloa crus-galli; conditions: Flood
Procedure, shortened: (§1)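 Plants at the 2-leaf stage in pots flooded to 3 cm were treated by applying compound directly to the paddy water, with depth held throughout. After 13 to 15 days in a greenhouse, response was rated visually against controls on a 0 (no effect) to 100 (complete control) scale.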

galium = assay: Test A postemergence herbicide test; format: in vivo, Galium aparine
Procedure, shortened: (§2)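 Visual injury rating, 0 (no effect) to 100 (complete control), versus untreated controls ~10 days after treatment. Postemergence spray applied at one- to two-leaf stage, plants 2–10 cm tall, potted in loam soil/sand. Greenhouse-held.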

barnyardgrass [2] = assay: Test A pre-/postemergence herbicide test; format: in vivo, Echinochloa crus-galli
Procedure, shortened: (§3)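 Planted in loam–sand blend; treated the same day preemergence by directed soil spray, while separately grown plants at one- to two-leaf stage got postemergence spray. Compared visually with untreated controls after approximately 10 days; 100 means complete control.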

corn = assay: Test A pre-/postemergence herbicide test; format: in vivo, Zea mays; conditions: Postemergence
Procedure, shortened: as §3

kochia = assay: Test A pre-/postemergence herbicide test; format: in vivo, Kochia scoparia; conditions: for Plant response rating, Kochia: 0 to 100 scale
Procedure, shortened: as §3

rice = assay: Test C flooded paddy test; format: in vivo, Oryza sativa; conditions: Flood
Procedure, shortened: as §1

wheat = assay: Test A pre-/postemergence herbicide test; format: in vivo, Triticum aestivum; conditions: Postemergence
Procedure, shortened: as §3

sedge, umbrella = assay: Test C flooded paddy test; format: in vivo, Cyperus difformis; conditions: Flood
Procedure, shortened: as §1

ducksalad = assay: Test C flooded paddy test; format: in vivo, Heteranthera limosa; conditions: Flood
Procedure, shortened: as §1

ryegrass, Italian = assay: Test A pre-/postemergence herbicide test; format: in vivo, Lolium multiflorum; conditions: for Plant response rating, Ryegrass, Italian: 0 to 100 scale
Procedure, shortened: as §3

giant foxtail = assay: Test A pre-/postemergence herbicide test; format: in vivo, Setaria faberii; conditions: for Plant response rating, Foxtail, Giant: 0 to 100 scale
Procedure, shortened: as §3

ragweed = assay: Test A pre-/postemergence herbicide test; format: in vivo, Ambrosia elatior; conditions: for Plant response rating, Ragweed: 0 to 100 scale
Procedure, shortened: as §3

pigweed = assay: Test A pre-/postemergence herbicide test; format: in vivo, Amaranthus retroflexus; conditions: for Plant response rating, Pigweed: 0 to 100 scale
Procedure, shortened: as §3

blackgrass = assay: Test A postemergence herbicide test; format: in vivo, Alopecurus myosuroides
Procedure, shortened: as §2

[3] = 125 g ai/ha, scale of 0 to 100 where 0 is no effect and 100 is complete control, 13 to 15 days
[4] = 125 g ai/ha, 0 to 100 scale, 0 no effect, 100 complete control
[5] = 500 g ai/ha, 0 to 100 scale (0 no effect, 100 complete control)
[6] = 125 g ai/ha, visual rating, 0 no effect, 100 complete control, approximately 10 days, preemergence
[7] = Postemergence, 125 g ai/ha, 0 no effect, 100 complete control

O=C1NCC(c2cccc(C(F)(F)F)c2)C1C(=O)Nc1ncc(Cl)s1 (racemic) [Compound 113]
50: Plant response rating, Ducksalad (ducksalad; 500 g ai/ha, scale 0 to 100)
70: Plant response rating, Ducksalad (ducksalad; 1000 g ai/ha, scale 0 to 100)
0: Plant response rating, Barnyardgrass (barnyardgrass [1]; [3]) | Plant response rating, Barnyardgrass (barnyardgrass [1]; 250 g ai/ha, scale 0 to 100) | Plant response rating, Barnyardgrass (barnyardgrass [1]; 500 g ai/ha, scale 0 to 100) | Plant response rating, Barnyardgrass (barnyardgrass [1]; 1000 g ai/ha, scale 0 to 100) | Plant response rating, Galium (galium; [4]) | Galium plant response rating (0 to 100 scale, 0 is no effect, 100 is complete control) (galium; 500 g ai/ha) | Plant response rating, Barnyardgrass (barnyardgrass [2]; 125 g ai/ha, visual rating, 0 to 100 scale, 0 no effect, 100 complete control, approximately 10 days, preemergence) | Plant response rating, Barnyardgrass (barnyardgrass [2]; Postemergence, 125 g ai/ha, 0 to 100 scale, 0 no effect, 100 complete control) | Plant response rating, Barnyardgrass (barnyardgrass [2]; Postemergence, 500 g ai/ha, 0 to 100 scale (0 no effect, 100 complete control)) | Plant response rating, Barnyardgrass (barnyardgrass [2]; preemergence, 500 g ai/ha, 0 to 100 scale (0 no effect, 100 complete control)) | Plant response rating, Corn (corn; [4]) | Plant response rating, Corn (corn; [5]) | Plant response rating, Kochia (kochia; [6]) | Plant response rating, Kochia (kochia; [7]) | Kochia plant response rating (0 to 100 scale, 0 is no effect, 100 is complete control) (kochia; Postemergence, 500 g ai/ha) | Plant response rating, Kochia (kochia; preemergence, 500 g ai/ha) | Plant response rating, Rice (rice; [3]) | Plant response rating, Rice (rice; 250 g ai/ha, scale 0 to 100) | Plant response rating, Rice (rice; 500 g ai/ha, scale 0 to 100) | Plant response rating, Rice (rice; 1000 g ai/ha, scale 0 to 100) | Plant response rating, Wheat (wheat; [4]) | Wheat plant response rating (0 to 100 scale, 0 is no effect, 100 is complete control) (wheat; 500 g ai/ha) | Plant response rating, Sedge, Umbrella (sedge, umbrella; [3]) | Plant response rating, Sedge, Umbrella (sedge, umbrella; 250 g ai/ha, scale 0 to 100) | Plant response rating, Sedge, Umbrella (sedge, umbrella; 500 g ai/ha, scale 0 to 100) | Plant response rating, Sedge, Umbrella (sedge, umbrella; 1000 g ai/ha, scale 0 to 100) | Plant response rating, Ryegrass, Italian (ryegrass, Italian; [6]) | Plant response rating, Ryegrass, Italian (ryegrass, Italian; [7]) | Ryegrass, Italian plant response rating (0 to 100 scale, 0 is no effect, 100 is complete control) (ryegrass, Italian; Postemergence, 500 g ai/ha) | Plant response rating, Ryegrass, Italian (ryegrass, Italian; preemergence, 500 g ai/ha) | Plant response rating, Foxtail, Giant (giant foxtail; [6]) | Plant response rating, Foxtail, Giant (giant foxtail; [7]) | Foxtail, Giant plant response rating (0 to 100 scale, 0 is no effect, 100 is complete control) (giant foxtail; Postemergence, 500 g ai/ha) | Plant response rating, Foxtail, Giant (giant foxtail; preemergence, 500 g ai/ha) | Plant response rating, Ragweed (ragweed; [6]) | Plant response rating, Ragweed (ragweed; [7]) | Ragweed plant response rating (0 to 100 scale, 0 is no effect, 100 is complete control) (ragweed; Postemergence, 500 g ai/ha) | Plant response rating, Ragweed (ragweed; preemergence, 500 g ai/ha) | Plant response rating, Pigweed (pigweed; [6]) | Plant response rating, Pigweed (pigweed; [7]) | Pigweed plant response rating (0 to 100 scale, 0 is no effect, 100 is complete control) (pigweed; Postemergence, 500 g ai/ha) | Plant response rating, Pigweed (pigweed; preemergence, 500 g ai/ha) | Plant response rating, Blackgrass (blackgrass; [4]) | Plant response rating, Blackgrass (blackgrass; [5])
20: Plant response rating, Ducksalad (ducksalad; [3])
30: Plant response rating, Ducksalad (ducksalad; 250 g ai/ha, scale 0 to 100)
